Laboratory results published in the supplement of paper PMC11208160.

Test: recombinant UMI read abundance after kanamycin selection (control-corrected) (log10(CPM+1)); higher = more efficient recombination; extreme values may be limits of the assay; sequences stand for … in AGTGCAGAGAAAATCGGCCAGTTTTCTCTGCCTGCAGTCCGCATGCCGTGGGACCCCTTGGGTTCTAACCTGTTGCCTAGATTTATGCAGCGGACTGCCTTTCTCCCAAAGTGATAAACCGG…AGGTTGGTTTCACT; site = the 11-nt donor
Procedure, shortened: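 Sequencing read counts were converted to CPM, averaged over two replicates and scaled by control-derived factors. Results are given as log10(CPM+1). The reads covered the donor–target junction of recombinant UMIs from a pooled Escherichia coli screen of donor and donor-binding-loop pairs for the IS621 bridge recombinase.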
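Further: IS621 bridge recombinase in Escherichia coli cells against a fixed T5 target plasmid.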

Row | Sequence | recombinant UMI read abundance (log10)
1 | CGAGTGGCATGGACCGGTTTTCCCGGTAATCCGTATTTGAG (site CGAGTGGCTCT) | 1.85
2 | CGATAATCATGGACCGGTTTTCCCGGTAATCCGTATTTGGT (site CGATAATCTAC) | 2.74
3 | CGATAATCATGGACCGGTTTTCCCGGTAATCCGTATTTGGT (site CGATCATCTAG) | 0
4 | CGATCATCATGGACCGGTTTTCCCGGTAATCCGTATTTGAC (site CGATCATCTAG) | 0
5 | CGATCATCATGGACCGGTTTTCCCGGTAATCCGTATTTGAC (site CGATCATCTGT) | 1.49
6 | CGATCATCATGGACCGGTTTTCCCGGTAATCCGTATTTGCA (site CGATCATCTAG) | 0
7 | CGATCATCATGGACCGGTTTTCCCGGTAATCCGTATTTGCA (site CGATCATCTCG) | 0
8 | CGATCATCATGGACCGGTTTTCCCGGTAATCCGTATTTGCA (site CGATCATCTGG) | 0
9 | CGATCATCATGGACCGGTTTTCCCGGTAATCCGTATTTGCA (site CGATCATCTTG) | 2.31
10 | CGATCATCATGGACCGGTTTTCCCGGTAATCCGTATTTGGG (site CGATCATCTAG) | 0
11 | CGATCATCATGGACCGGTTTTCCCGGTAATCCGTATTTGGG (site CGATCATCTCC) | 0.00655
12 | CGATCCCCATGGACCGGTTTTCCCGGTAATCCGTATTTGAA (site CGATCCCCTTT) | 0.71
13 | CGATCGACATGGACCGGTTTTCCCGGTAATCCGTATTTGTG (site CGATCGACTAA) | 0.242
14 | CGATCGACATGGACCGGTTTTCCCGGTAATCCGTATTTGTG (site CGATCGACTCA) | 0.139
15 | CGATCGACATGGACCGGTTTTCCCGGTAATCCGTATTTGTG (site CGATCGACTGA) | 0
16 | CGATCGACATGGACCGGTTTTCCCGGTAATCCGTATTTGTG (site CGATCGACTTA) | 0.319
17 | CGATCGACATGGACCGGTTTTCCCGGTAATCCGTATTTGTT (site AGATCGACTAA) | 0.0131
18 | CGATCGACATGGACCGGTTTTCCCGGTAATCCGTATTTGTT (site CAATCGACTAA) | 0.0144
19 | CGATCGACATGGACCGGTTTTCCCGGTAATCCGTATTTGTT (site CCATCGACTAA) | 0.0246

Row | Sequence | recombinant UMI read abundance (log10)
20 | CGATCGACATGGACCGGTTTTCCCGGTAATCCGTATTTGTT (site CGAACGACTAA) | 0.0148
21 | CGATCGACATGGACCGGTTTTCCCGGTAATCCGTATTTGTT (site CGACCGACTAA) | 0.509
22 | CGATCGACATGGACCGGTTTTCCCGGTAATCCGTATTTGTT (site CGAGCGACTAA) | 0.0076
23 | CGATCGACATGGACCGGTTTTCCCGGTAATCCGTATTTGTT (site CGATAGACTAA) | 0.00765
24 | CGATCGACATGGACCGGTTTTCCCGGTAATCCGTATTTGTT (site CGATCAACTAA) | 0.0776
25 | CGATCGACATGGACCGGTTTTCCCGGTAATCCGTATTTGTT (site CGATCCACTAA) | 0.0134
26 | CGATCGACATGGACCGGTTTTCCCGGTAATCCGTATTTGTT (site CGATCGACTAA) | 0.6
27 | CGATCGACATGGACCGGTTTTCCCGGTAATCCGTATTTGTT (site CGATCGACTAC) | 0.0194
28 | CGATCGACATGGACCGGTTTTCCCGGTAATCCGTATTTGTT (site CGATCGACTAG) | 1.09
29 | CGATCGACATGGACCGGTTTTCCCGGTAATCCGTATTTGTT (site CGATCGACTAT) | 0.188
30 | CGATCGACATGGACCGGTTTTCCCGGTAATCCGTATTTGTT (site CGATCGACTCA) | 0.0164
31 | CGATCGACATGGACCGGTTTTCCCGGTAATCCGTATTTGTT (site CGATCGACTGA) | 0.668
32 | CGATCGACATGGACCGGTTTTCCCGGTAATCCGTATTTGTT (site CGATCGACTTA) | 0.271
33 | CGATCGACATGGACCGGTTTTCCCGGTAATCCGTATTTGTT (site CGATCGCCTAA) | 0.00955
34 | CGATCGACATGGACCGGTTTTCCCGGTAATCCGTATTTGTT (site CGATCGGCTAA) | 0.00691
35 | CGATCGACATGGACCGGTTTTCCCGGTAATCCGTATTTGTT (site CGATCGTCTAA) | 0.00706
36 | CGATCGACATGGACCGGTTTTCCCGGTAATCCGTATTTGTT (site CGATCTACTAA) | 0.00746
37 | CGATCGACATGGACCGGTTTTCCCGGTAATCCGTATTTGTT (site CGATGGACTAA) | 0.0255
38 | CGATCGACATGGACCGGTTTTCCCGGTAATCCGTATTTGTT (site CGATTGACTAA) | 0.0149

Row | Sequence | recombinant UMI read abundance (log10)
39 | CGATCGACATGGACCGGTTTTCCCGGTAATCCGTATTTGTT (site CGCTCGACTAA) | 0.0137
40 | CGATCGACATGGACCGGTTTTCCCGGTAATCCGTATTTGTT (site CGGTCGACTAA) | 0.012
41 | CGATCGACATGGACCGGTTTTCCCGGTAATCCGTATTTGTT (site CGTTCGACTAA) | 0.0124
42 | CGATCGACATGGACCGGTTTTCCCGGTAATCCGTATTTGTT (site CTATCGACTAA) | 0.0176
43 | CGATCGACATGGACCGGTTTTCCCGGTAATCCGTATTTGTT (site GGATCGACTAA) | 0.0103
44 | CGATCGACATGGACCGGTTTTCCCGGTAATCCGTATTTGTT (site TGATCGACTAA) | 0.00749
45 | CGATCGCCATGGACCGGTTTTCCCGGTAATCCGTATTTGCT (site CGATCATCTAG) | 0
46 | CGATCGCCATGGACCGGTTTTCCCGGTAATCCGTATTTGCT (site CGATCGCCTAG) | 0.27
47 | CGATCGGCATGGACCGGTTTTCCCGGTAATCCGTATTTGTT (site CGATCGACTAA) | 0.00492
48 | CGATCGGCATGGACCGGTTTTCCCGGTAATCCGTATTTGTT (site CGATCGCCTAA) | 0.0111
49 | CGATCGGCATGGACCGGTTTTCCCGGTAATCCGTATTTGTT (site CGATCGGCTAA) | 0.642
50 | CGATCGGCATGGACCGGTTTTCCCGGTAATCCGTATTTGTT (site CGATCGTCTAA) | 0.324
51 | CGATCTTCATGGACCGGTTTTCCCGGTAATCCGTATTTGCA (site CGATCATCTAG) | 0
52 | CGATCTTCATGGACCGGTTTTCCCGGTAATCCGTATTTGCA (site CGATCTTCTTG) | 0.912
53 | CGATGACCATGGACCGGTTTTCCCGGTAATCCGTATTTGGG (site CGAAGACCTCC) | 0.00605
54 | CGATGACCATGGACCGGTTTTCCCGGTAATCCGTATTTGGG (site CGACGACCTCC) | 0.00326
55 | CGATGACCATGGACCGGTTTTCCCGGTAATCCGTATTTGGG (site CGAGGACCTCC) | 0.0601
56 | CGATGACCATGGACCGGTTTTCCCGGTAATCCGTATTTGGG (site CGATGACCTCC) | 0.0111
57 | CGATGATCATGGACCGGTTTTCCCGGTAATCCGTATTTGAT (site CGATCATCTAG) | 0
